Source: patent publication US6545032B1, “Synthesis of [3,5,7]-H-imidazo[1,5-a] imidazol-2(3H)-one compounds” (Torrey Pines Institute for Molecular Studies, priority 1999, dated 2003)

Columns and labels:
mu opiate receptor = biological target: T1, mu opiate receptor (Rattus norvegicus, UniProt P33535); assay: Inhibition of [3H]DAMGO binding to the mu opiate receptor in rat brain homogenates; parameters: Mean: unit not given beside the values; conditions: 0.08 mg of compound per milliliter, 7 nM 3H-labeled DAMGO, rat brain membranes; for % Bound: [3H]DAMGO bound; for Mean: mean bound radioactivity of [3H]DAMGO; for Minus NSB*: mean minus non-specific binding; for % Inhibition: percent inhibition of DAMGO binding
T1 construct: from tissue; host or cells: rat brain membranes/homogenate
Experimental: The previously prepared [3,5,7]-1H-imidazo[1,5-a]-imidazol-2(3H)-one library of individual compounds was screened for the ability to inhibit the binding of [^3H] [D-Ala^2,MePhe^4,Gly^5-ol]enkephalin (DAMGO) that is known to bind specifically to the mu opiate receptor present in rat brain homogenates following literature procedures. [Dooley et al., Science, 266:2019(1994); U.S. Pat. No. 5,763,193.]
Preparation of rat brain membranes and the receptor binding assay were carried out as described in Dooley et al., Life Sci., 52:1509(1993). Each tube in the screening assay contained 0.08 mg of compound mixture per milliliter, 0.5 mL of membrane suspension (0.1 mg of protein), 7 nM ^3H-labeled DAMGO [specific activity 36 Ci/mmol, obtained from the National Institute on Drug Abuse (NIDA) repository through Chiron Mimotopes PeptideSystems (San Diego, Calif.) and […] of peptide mixture in 50 mM Tris-HCl buffer (pH 7.4). The final volume was 0.65 mL. The results of these screenings are shown in the table, below, wherein the “R” groups are as discussed for Example 1. The results are reported as percent inhibition of DAMGO binding.

kappa opiate receptor = biological target: T2, kappa opiate receptor (Cavia porcellus, UniProt P41144); assay: Inhibition of tritiated U69,593 binding to the kappa opiate receptor in guinea pig brain homogenates; parameters: Mean: unit not given beside the values; conditions: 3 nm tritiated U69,593, guinea pig brain membranes; for % Bound: [3H]U69,593 bound; for % Inhibition: inhibition of [3H]U69,593 binding; for Mean: mean bound radioactivity of [3H]U69,593, 2.5 hours 25° C.; for Minus NSB: mean minus non-specific binding
T2 construct: guinea pig cortices and cerebella were homogenized in 40 mL of Buffer A; from tissue; host or cells: guinea pig cortices and cerebella, crude membrane suspension
Experimental: The above-prepared library of individual compounds was screened for the ability to inhibit the binding of tritiated Compound U69,593 that is known to bind specifically to the kappa opiate receptor present in guinea pig brain homogenates following literature procedures. [Dooley et al., J. Biol. Chem., 273(30) 18848-18856 (1998)]
Briefly, guinea pig cortices and cerebella were homogenized in 40 mL of Buffer A [50 mM Tris-HCl, pH 7.4] at 4° C. Homogenates were centrifuged [Beckman® J2-HC, 35, 300×g] for 10 minutes. The pellets were resuspended in fresh buffer and incubated at 37° C. for 40 minutes. Following incubation, the suspensions were centrifuged as before, the resulting pellets resuspended in 100 volumes of Tris buffer, and the suspensions combined. Membrane suspensions were prepared and used on the same day. Protein content of the crude homogenates was determined by the method of Bradford, Anal. Biochem., 72:248-252 (1976).
Each assay tube contained 0.5 mL of membrane suspension, 3 nm of tritiated Compound U69,593 [(5a,7a,8b)-(−)-N-methyl-N-(7-(1-pyrrolidinyl)-1-oxaspiro(4,5)dec-8-yl)-benzeneacetamide; Lahti et al., European J. Pharmacol., 109:281-284(199-85)] in a total volume of 0.65 mL. Assay tubes were incubated for 2.5 hours a 25° C. The assay was then filtered through GF-B filters on a Tomec™ harvester (Orange, Conn.). The filters were subsequently washed with 6 mL of 50 mM Tris-HC1, pH 7.4 at 4° C. Bound radioactivity was counted on a Wallace™ Beta-plate Liquid Scintillation Counter (Piscataway, N.J.). Unlabeled U50, 488 [(trans-(dl)-3,4-dichloro-N-methyl-N-[2-(1-pyrrolidinyl)cyclohexyl]-benzeneacetamide) methane sulfonate hydrate; Lahti et al., Life Sci., 31:2257-xx(1982) and Von Voightlander et al., J. Pharmacol. Exp. Ther., 224:7 (1983)] was used as a competitive inhibitor to generate a standard curve and determine nonspecific binding. The results of these assays are shown in the table, below, wherein the “R” groups are as discussed for Example 1.

T2 sequence (P41144 whole entry): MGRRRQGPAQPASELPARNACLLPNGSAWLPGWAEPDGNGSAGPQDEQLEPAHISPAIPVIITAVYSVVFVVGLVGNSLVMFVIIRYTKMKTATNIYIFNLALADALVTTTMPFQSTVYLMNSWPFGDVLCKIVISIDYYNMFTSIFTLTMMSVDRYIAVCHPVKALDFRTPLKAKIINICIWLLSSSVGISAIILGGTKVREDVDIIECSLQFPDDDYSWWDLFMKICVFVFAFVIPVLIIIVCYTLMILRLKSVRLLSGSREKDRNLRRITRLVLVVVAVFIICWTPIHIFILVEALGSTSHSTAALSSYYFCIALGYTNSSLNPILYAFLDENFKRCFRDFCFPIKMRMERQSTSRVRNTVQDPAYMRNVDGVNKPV
T1 sequence (P33535 whole entry): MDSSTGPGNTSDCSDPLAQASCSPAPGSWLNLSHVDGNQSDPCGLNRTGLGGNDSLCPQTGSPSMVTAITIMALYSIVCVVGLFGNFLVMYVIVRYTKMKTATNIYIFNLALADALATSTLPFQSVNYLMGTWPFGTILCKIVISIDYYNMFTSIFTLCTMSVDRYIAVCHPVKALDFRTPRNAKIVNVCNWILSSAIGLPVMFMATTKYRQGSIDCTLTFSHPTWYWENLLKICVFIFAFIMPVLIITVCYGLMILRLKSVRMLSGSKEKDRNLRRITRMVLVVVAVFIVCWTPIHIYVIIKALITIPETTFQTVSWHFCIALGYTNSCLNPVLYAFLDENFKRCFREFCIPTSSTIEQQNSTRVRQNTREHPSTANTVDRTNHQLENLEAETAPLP

Row | Structure (SMILES) | % Bound (mu opiate receptor) | Mean (mu opiate receptor) | Minus NSB* (mu opiate receptor) | % Inhibition (mu opiate receptor) | % Bound (kappa opiate receptor) | % Inhibition (kappa opiate receptor) | Mean (kappa opiate receptor) | Minus NSB (kappa opiate receptor)
1 | CCCc1nc(C)n2c1NC(=O)C2C(C)C (racemic) [Pool 61] | 39% | 677.65 | 369.65 | 61% | 50.845% | 49.155% | 1433.75 | 526.75
2 | CCC(CC)c1nc(C(C)C)c2n1C(C(C)C)C(=O)N2 (stereo not shown) [Pool 157] | 65% | 930.35 | 622.35 | 35% | 54.638% | 45.362% | 1473.05 | 566.05
3 | CC(C)c1nc(Cc2ccc(Cl)c(Cl)c2)n2c1NC(=O)C2C(C)C (racemic) [Pool 81] | 71% | 988.3 | 680.30 | 29% | 89.223% | 10.777% | 1831.35 | 924.35
4 | CC(C)c1nc(Cc2ccc(Br)cc2)n2c1NC(=O)C2C(C)C (racemic) [Pool 77] | 39% | 682.95 | 374.95 | 61% | 73.658% | 26.342% | 1670.1 | 763.10
5 | Cc1nc(C(C)C)c2n1C(CC(C)C)C(=O)N2 (stereo not shown) [Pool 4] | 70% | 980.1 | 672.10 | 30% | 95.420% | 4.580% | 1895.55 | 988.55
6 | Cc1ccc(Cc2nc(C(C)C)c3n2C(C(C)C)C(=O)N3)cc1 (racemic) [Pool 74] | 58% | 858.65 | 550.65 | 42% | 48.287% | 51.713% | 1407.25 | 500.25
7 | CC(C)c1nc(Cc2cccc(F)c2)n2c1NC(=O)C2C(C)C (racemic) [Pool 71] | 57% | 853.7 | 545.70 | 43% | 61.245% | 38.755% | 1541.5 | 634.50
8 | Cc1nc(CC(C)C)c2n1C(C(C)C)C(=O)N2 (stereo not shown) [Pool 53] | 71% | 988.95 | 680.95 | 29% | 106.356% | −6.356% | 2008.85 | 1101.85
9 | CC(C)c1nc(CC(C)(C)C)n2c1NC(=O)C2C(C)C (stereo not shown) [Pool 136] | 72% | 991 | 683.00 | 28% | 80.589% | 19.411% | 1741.9 | 834.90
10 | CC(C)Cc1nc(C(C)C)c2n1C(C(C)C)C(=O)N2 (stereo not shown) [Pool 125] | 48% | 763.7 | 455.70 | 52% | 62.384% | 37.616% | 1553.3 | 646.30
11 | CC(C)c1nc(Cc2ccccc2)n2c1NC(=O)C2C(C)C (racemic) [Pool 110] | 54% | 818.7 | 510.70 | 46% | 73.451% | 26.549% | 1667.95 | 760.95
12 | CC(C)c1nc(C2CCCCC2)n2c1NC(=O)C2C(C)C (stereo not shown) [Pool 137] | 66% | 933.35 | 625.35 | 34% | 129.619% | −29.619% | 2249.85 | 1342.85
13 | Cc1nc(CO)c2n1C(C(C)C)C(=O)N2 (stereo not shown) [Pool 39] | – | – | – | – | 78.827% | 21.173% | 1723.65 | 816.65
